Experimental findings from PubChem BioAssay (NCI) are described below.

The structures appear in SMILES notation.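 In this assay, cells in 96-well plates receive the compound at five concentrations for 48 hours. Endpoints are linearly interpolated between the surrounding concentrations. The concentration for 50% growth inhibition is given as GI50. TGI denotes the concentration required for complete inhibition of growth.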

Common to all, as to test: NCI tumour cell line growth inhibition, 48 h
Experiment [1] relates to MDA-MB-435.
Experiment [2] relates to NCI-H23 lung.
Experiment [3] concerns HCT-116 colon.
For experiment [4], the system named is BT-549 breast.
Experiment [5] relates to SK-MEL-2 melanoma.
Experiment [6] concerns OVCAR-3 ovarian.
The subject of experiment [7] is HCC-2998 colon.
Experiment [8] has as its system SNB-19 CNS.
Experiment [9] has as its system U251 CNS.
Experiment [10] concerns SR leukemia.

`C=CCOC1=C(OC(C)=O)C(C2COC(C)(C)O2)OC1=O` (stereo not given): the TGI was 46.2 µM in experiment [1]; 35 µM in [2]; 36 µM in [3]; 60.1 µM in [4]; above 100 µM in experiment [5]; 31.9 µM in experiment [6]. In addition, the results for the TGI in [7], in [8] and in experiment [9] were above 100 µM, above 100 µM and 72.5 µM, respectively.

As for `Oc1ccccc1/C=N/N1C(=S)N(c2ccccc2)C(=Nc2ccccc2)C1=Nc1ccccc1`, the TGI in [1] was above 60 µM; in experiment [2], 24.9 µM; in experiment [3] it was 26.5 µM; in [10], above 81.2 µM; in experiment [5] it was 42.9 µM; in [6], 28.2 µM. In addition, the TGI was above 78.2 µM in experiment [7], 20.7 µM in experiment [8] and 14.2 µM in [9].

As for `CCOc1ccnc2c(OC)c(C)c3nc4ccccc4nc3c12`, the TGI in [1], in experiment [2], in [3], in experiment [10], in experiment [5] and in experiment [6] was above 100 µM each time. The TGI in experiment [7], in experiment [8] and in [9] was above 100 µM in each case.

`CC(C)[Si](CC1=CCCCC12C(=O)N(COCC[Si](C)(C)C)c1ccccc12)(C(C)C)C(C)C` (stereo not given): the TGI in experiment [1], in [2], in experiment [10], in experiment [5], in experiment [6] and in experiment [7] was above 100 µM in each case. Moreover, the TGI in experiment [8] and in experiment [9] was above 100 µM in each case.

Turning to `Cc1cccc2c1CC1(Cc3c(C)cccc3C1=O)C2=O`, the TGI in experiment [1], in experiment [2], in experiment [3], in [10], in [5] and in [6] was above 100 µM in each case. For the same compound, the TGI in [7], in experiment [8] and in [9] was above 100 µM in each case.

Take `NCCCCNCCCNC(=O)c1csc(-c2nc(CCN)sc2Cl)n1`: the TGI in experiment [1], in experiment [2], in experiment [3], in experiment [4], in experiment [6] and in [7] was above 100 µM in each case. For the same compound, the TGI in [8] and in [9] was above 100 µM each time.

Regarding `COc1cc2oc(=O)cc(C)c2c(OC)c1OC`, the TGI in [1], in experiment [2], in experiment [3], in experiment [10], in experiment [5] and in experiment [6] was above 100 µM each time. In addition, the TGI in experiment [8] and in [9] was above 100 µM each time.

As to `O=CC1C(=O)Nc2nc3ccccc3n2C1c1ccccc1` (stereo not given), the TGI stood at 44.8 µM in experiment [1]; 53.5 µM in experiment [2]; 24.9 µM in [3]; 28.4 µM in experiment [4]; 43.7 µM in experiment [5]; 20.7 µM in experiment [6]. The TGI in [9] stood at 29.1 µM.

In the case of `COc1ccc(/C=C2\NC(=S)N(CN3CCOCC3)C2=O)cc1`, the TGI in experiment [1], in experiment [2], in experiment [3], in [10], in [5] and in experiment [6] was above 100 µM in each case. The TGI in experiment [8] and in experiment [9] was above 100 µM throughout.

On to `NC(=O)NC(=O)c1cccc(C(=O)NC(N)=O)n1`, for which the TGI in [1], in experiment [2], in experiment [3], in [10], in experiment [5] and in [6] was above 100 µM throughout. The TGI in [7], in [8] and in [9] was above 100 µM throughout.

As to `COC(=O)CCC(=O)c1ccc2c(c1)CC1(Cc3ccccc3C1)C2`, the TGI in experiment [1] is above 100 µM; in experiment [2], above 100 µM; in [3], above 100 µM; in experiment [10], 34 µM; in experiment [5], above 100 µM; in experiment [6], above 100 µM. Also, the TGI in experiment [7] and in experiment [9] was above 100 µM throughout.

Take `COc1cc(/C=C2\CCCC3=C2N=C2SC=NN2C3c2cc(OC)c(OC)c(OC)c2)cc(OC)c1OC` (stereo not given): the GI50 is 2.04 µM in experiment [1]; 1.76 µM in experiment [3]; 2.55 µM in experiment [10]; 3.46 µM in experiment [5]; 3.02 µM in experiment [6]; 4.44 µM in [8]. The TGI in experiment [1] was 5.17 µM; in experiment [3] it was 3.41 µM; in experiment [10] it was 9.47 µM; in [5], above 100 µM; in experiment [6], 9.32 µM; in experiment [8] it was above 100 µM.

On to `C=C1[C@@H]2CCC(C)(C)[C@H]1CCC(=O)[C@@H]2C(=O)OC`, for which the TGI in [2], in experiment [3], in [10], in [5], in experiment [6] and in experiment [7] was above 100 µM each time. The TGI in [8] and in experiment [9] was above 100 µM in each case.

Turning to `CNC(=S)c1nnsc1N`, the TGI in [1], in experiment [2], in experiment [3], in [4], in experiment [5] and in [6] was above 100 µM in each case. Besides, the TGI in [7] and in [9] was above 100 µM throughout.

With `COc1ccc(-c2c3c(n(C4OC(COC(C)=O)C(OC(C)=O)C(OC(C)=O)C4OC(C)=O)c(=S)c2C#N)CCCC3)cc1` (stereo not given), the TGI in experiment [1] was above 100 µM; in experiment [2] it was above 100 µM; in experiment [3], above 100 µM; in [10] it was above 100 µM; in [5] it was 72.5 µM; in experiment [6] it was 92.6 µM. Further, the TGI in [7], in experiment [8] and in experiment [9] was above 100 µM throughout.

Take `Cc1cc(NS(=O)(=O)c2ccc(N=Nc3c(Nc4ccccc4)nn(-c4ccc(S(=O)(=O)Nc5ccncn5)cc4)c3C)cc2)no1`: the TGI in experiment [1], in [2], in [3], in experiment [5], in experiment [6] and in experiment [7] was above 100 µM each time. Moreover, the TGI in experiment [8] and in experiment [9] was above 100 µM throughout.

As to `C[C@@H](Br)[C@@H]1CC[C@H]2c3[nH]c4ccccc4c3CCN2C1`, the TGI turned out to be 45.6 µM in experiment [1]; 67.1 µM in [2]; 38.3 µM in experiment [10]; 50.6 µM in experiment [5]; 42.4 µM in experiment [6]; 31.3 µM in [7]. The TGI is 43.9 µM in experiment [8] and 55.8 µM in experiment [9].

On to `Cc1ccc(S(=O)(=O)N/N=C2/C3CC4CCC2C4C3)cc1` (stereo not given), for which the TGI in experiment [1], in experiment [2], in [3], in [4], in [6] and in [7] was above 100 µM each time. Also, in experiment [9], the TGI was above 100 µM.

Regarding `CSc1nnc2n1-c1ccccc1SCC2`, the TGI in experiment [2], in experiment [3], in experiment [10], in experiment [5], in experiment [6] and in experiment [7] was above 100 µM throughout. Moreover, the TGI in experiment [8] and in experiment [9] was above 100 µM in each case.

In the case of `O=CN/C=C\c1cc(O)ccc1O`, the TGI in experiment [2] was above 56.1 µM; in experiment [3] it was 25.2 µM; in experiment [10], 21.3 µM; in [5], above 100 µM; in experiment [6], 25 µM; in experiment [7], above 100 µM. Besides, the TGI was above 100 µM in [8] and above 81 µM in [9].

In the case of `CCN(CC)C(=O)CCNC(C)Cc1c[nH]c2ccccc12` (stereo not given), the TGI in [1], in experiment [2], in experiment [3], in experiment [10], in experiment [5] and in [6] was above 100 µM each time. Also, the TGI in experiment [7], in [8] and in experiment [9] was above 100 µM each time.

For `COc1ccc([C@H]2C=C(c3cc(F)c(Cl)cc3Cl)N=c3s/c(=C\c4ccc(-c5ccc(Cl)cc5Cl)o4)c(=O)n32)cc1`, the TGI in [1] is above 100 µM; in experiment [2], above 100 µM; in [3] it was above 100 µM; in [4] it was above 100 µM; in experiment [5], 48.3 µM; in experiment [7], 47.8 µM. Besides, the TGI in experiment [8] and in [9] was above 100 µM throughout.
